From PubChem BioAssay AID248 (DTP/NCI, 2004)
Several values for one entry are separate records, joined by “and”; a condition that tells them apart may be missing. Identical values can stand only once. Toxic doses and inconclusive results are not listed. No stated cut-off is given here; in the data, active means T/C of 150% or more; inactive means T/C below 125%.

System: L1210 leukemia ip in BDF1 mice, survival T/C
Assay: NCI In Vivo Anticancer Drug Screen. Data for tumor model L1210 Leukemia (intraperitoneal) in B6D2F1 (BDF1) mice
Conditions: endpoint: mean survival time, higher = longer survival
How it was run: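 Ratio derived from survival: compound-dosed mice over vehicle-dosed mice, all bearing a transplantable tumor.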

[1] = dose: 100.0 mg/kg/injection, schedule: Q01DX009 (ip), vehicle: saline with Tween-80
[2] = dose: 25.0 mg/kg/injection, schedule: Q01DX009 (ip), vehicle: Klucel (hydroxypropylcellulose) (HPC)
[3] = dose: 25.0 mg/kg/injection, schedule: Q04DX003 (ip), vehicle: Klucel (hydroxypropylcellulose) (HPC)
[4] = dose: 50.0 mg/kg/injection, schedule: Q01DX009 (ip), vehicle: Klucel (hydroxypropylcellulose) (HPC)
[5] = dose: 50.0 mg/kg/injection, schedule: Q04DX003 (ip), vehicle: Klucel (hydroxypropylcellulose) (HPC)
[6] = dose: 100.0 mg/kg/injection, schedule: Q04DX003 (ip), vehicle: Klucel (hydroxypropylcellulose) (HPC)
[7] = dose: 200.0 mg/kg/injection, schedule: Q04DX003 (ip), vehicle: Klucel (hydroxypropylcellulose) (HPC)
[8] = dose: 100.0 mg/kg/injection, schedule: Q04DX003 (ip), vehicle: saline with Tween-80
[9] = dose: 200.0 mg/kg/injection, schedule: Q04DX003 (ip), vehicle: saline with Tween-80
[10] = dose: 400.0 mg/kg/injection, schedule: Q04DX003 (ip), vehicle: saline with Tween-80
[11] = dose: 400.0 mg/kg/injection, schedule: Q04DX003 (ip), vehicle: Klucel (hydroxypropylcellulose) (HPC)
[12] = dose: 100.0 mg/kg/injection, schedule: Q04DX002 (ip), vehicle: Klucel (hydroxypropylcellulose) (HPC)
[13] = dose: 200.0 mg/kg/injection, schedule: Q04DX002 (ip), vehicle: Klucel (hydroxypropylcellulose) (HPC)
[14] = dose: 400.0 mg/kg/injection, schedule: Q04DX002 (ip), vehicle: Klucel (hydroxypropylcellulose) (HPC)

Measured: T/C

C=CCOCCC#N
inactive: dose: 25.0 mg/kg/injection, schedule: Q01DX009 (ip), vehicle: saline with Tween-80 95 % of control | dose: 50.0 mg/kg/injection, schedule: Q01DX009 (ip), vehicle: saline with Tween-80 97 % of control | [1] 100 % of control

NC(=O)OCCc1c2ccccc2nc2ccccc12
inactive: dose: 200.0 mg/kg/injection, schedule: Q04DX002 (ip), vehicle: other 103 % of control

CCOc1ccc(/C=C/[N+](=O)[O-])cc1
inactive: dose: 12.5 mg/kg/injection, schedule: Q01DX009 (ip), vehicle: Klucel (hydroxypropylcellulose) (HPC) 96 % of control | dose: 12.5 mg/kg/injection, schedule: Q04DX003 (ip), vehicle: Klucel (hydroxypropylcellulose) (HPC) 95 % of control | [2] 97 % of control | [3] 114 % of control | [4] 105 % of control | [5] 101 % of control | [6] 94 % of control | [7] 95 % of control

CCOC(=O)CN(CC(=O)OCC)CC(O)C(Cl)(Cl)Cl (centres undefined)
inactive: [1] 106 % of control | [8] 96 % of control | dose: 200.0 mg/kg/injection, schedule: Q01DX009 (ip), vehicle: saline with Tween-80 93 % of control | [9] 101 % of control | dose: 400.0 mg/kg/injection, schedule: Q01DX009 (ip), vehicle: saline with Tween-80 104 % of control | [10] 98 % of control

Cc1ccc2c(CCCC(=O)O)c(C)c(=O)oc2c1
inactive: dose: 100.0 mg/kg/injection, schedule: Q01DX001 (ip), vehicle: Klucel (hydroxypropylcellulose) (HPC) 98 % of control | [6] 103 % of control | dose: 200.0 mg/kg/injection, schedule: Q01DX001 (ip), vehicle: Klucel (hydroxypropylcellulose) (HPC) 98 % of control | [7] 96 % of control | dose: 400.0 mg/kg/injection, schedule: Q01DX001 (ip), vehicle: Klucel (hydroxypropylcellulose) (HPC) 100 % of control | [11] 88 % of control

CC1(C)OC2CS(=O)(=O)CC2O1 (centres undefined)
inactive: [8] 100 % of control | [9] 105 % of control | [10] 102 % of control

CCN(CC)CCCC#CCN1CCCCC1
inactive: [2] 100 % of control | [3] 103 % of control | [4] 101 % of control | [5] 106 % of control | dose: 100.0 mg/kg/injection, schedule: Q01DX009 (ip), vehicle: Klucel (hydroxypropylcellulose) (HPC) 102 % of control | [6] 103 % of control

Cc1cc(C)cc(C(O)(C(=O)O)c2ccccc2)c1 (centres undefined)
inactive: dose: 75.0 mg/kg/injection, schedule: Q01DX001 (ip), vehicle: other 103 % of control | dose: 150.0 mg/kg/injection, schedule: Q01DX001 (ip), vehicle: other 103 % of control | dose: 300.0 mg/kg/injection, schedule: Q01DX001 (ip), vehicle: other 106 % of control

CCCCCCCCCCCCCCCCCCNC(=O)Nc1ccc(C)c(Cl)c1
inactive: [12] 90 % of control | [13] 93 % of control

COc1cc(O)c(/C=N\N=C\c2ccco2)c(OC)c1
inactive: dose: 75.0 mg/kg/injection, schedule: Q01DX001 (ip), vehicle: saline 90 % of control | dose: 150.0 mg/kg/injection, schedule: Q01DX001 (ip), vehicle: saline 90 % of control | dose: 300.0 mg/kg/injection, schedule: Q01DX001 (ip), vehicle: saline 86 % of control

O=[N+]([O-])c1ccc(/C=N/C(/N=C/c2ccc([N+](=O)[O-])cc2)c2ccc([N+](=O)[O-])cc2)cc1
inactive: dose: 75.0 mg/kg/injection, schedule: Q01DX009 (ip), vehicle: carboxymethylcellulose (CMC) 94 % of control | dose: 100.0 mg/kg/injection, schedule: Q04DX003 (ip), vehicle: carboxymethylcellulose (CMC) 97 % of control | dose: 150.0 mg/kg/injection, schedule: Q01DX009 (ip), vehicle: carboxymethylcellulose (CMC) 90 % of control | dose: 200.0 mg/kg/injection, schedule: Q04DX003 (ip), vehicle: carboxymethylcellulose (CMC) 95 % of control | dose: 300.0 mg/kg/injection, schedule: Q01DX009 (ip), vehicle: carboxymethylcellulose (CMC) 92 % of control | dose: 400.0 mg/kg/injection, schedule: Q04DX003 (ip), vehicle: carboxymethylcellulose (CMC) 92 % of control

O=C1CCC(=O)N1
inactive: [6] 103 % of control | [7] 102 % of control | [11] 100 % of control

CCCCCCCCCCCCN1C(C)=CS/C1=C\C=C\c1scc(C)[n+]1CCCCCCCCCCCC
inactive: dose: 0.78 mg/kg/injection, schedule: Q01DX009 (ip), vehicle: saline with Tween-80 103 % of control | dose: 1.56 mg/kg/injection, schedule: Q01DX009 (ip), vehicle: saline with Tween-80 117 % of control | dose: 6.25 mg/kg/injection, schedule: Q01DX009 (ip), vehicle: saline with Tween-80 90 % of control

CCc1nc(N[N+](=O)[O-])nc(N)c1-c1ccccc1O
inactive: dose: 50.0 mg/kg/injection, schedule: Q04DX002 (ip), vehicle: Klucel (hydroxypropylcellulose) (HPC) 97 % of control | [12] 93 % of control and 111 % of control | [13] 97 % of control | [14] 90 % of control

OC(Cc1ccc(-c2ccccc2)cc1)c1ccccc1 (centres undefined)
inactive: dose: 50.0 mg/kg/injection, schedule: Q01DX001 (ip), vehicle: saline with Tween-80 93 % of control | dose: 100.0 mg/kg/injection, schedule: Q01DX001 (ip), vehicle: saline with Tween-80 91 % of control | dose: 200.0 mg/kg/injection, schedule: Q01DX001 (ip), vehicle: saline with Tween-80 91 % of control

O=C1OCC/C1=C/OCCCCCCO/C=C1/CCOC1=O
inactive: [12] 102 % of control | [13] 102 % of control | [14] 91 % of control

CC(CN(C)C)CN1c2ccccc2Sc2ccc(C(F)(F)F)cc21 (centres undefined)
inactive: dose: 0.78 mg/kg/injection, schedule: Q04DX003 (ip), vehicle: saline 108 % of control | dose: 1.56 mg/kg/injection, schedule: Q01DX009 (ip), vehicle: saline 111 % of control | dose: 1.56 mg/kg/injection, schedule: Q04DX003 (ip), vehicle: saline 96 % of control | dose: 3.12 mg/kg/injection, schedule: Q01DX009 (ip), vehicle: saline 104 % of control | dose: 3.12 mg/kg/injection, schedule: Q04DX003 (ip), vehicle: saline 105 % of control | dose: 6.25 mg/kg/injection, schedule: Q01DX009 (ip), vehicle: saline 105 % of control | dose: 6.25 mg/kg/injection, schedule: Q04DX003 (ip), vehicle: saline 97 % of control | dose: 12.5 mg/kg/injection, schedule: Q01DX009 (ip), vehicle: saline 109 % of control | dose: 12.5 mg/kg/injection, schedule: Q04DX003 (ip), vehicle: saline 105 % of control | dose: 25.0 mg/kg/injection, schedule: Q04DX003 (ip), vehicle: saline 109 % of control

CCOC(=O)C(C[N+](C)(CC)CC)c1ccccc1 (centres undefined)
inactive: dose: 88.8 mg/kg/injection, schedule: Q01DX001 (ip), vehicle: carboxymethylcellulose (CMC) 97 % of control and 102 % of control | dose: 100.0 mg/kg/injection, schedule: Q01DX001 (ip), vehicle: carboxymethylcellulose (CMC) 113 % of control | dose: 133.0 mg/kg/injection, schedule: Q01DX001 (ip), vehicle: carboxymethylcellulose (CMC) 105 % of control and 114 % of control | dose: 200.0 mg/kg/injection, schedule: Q01DX001 (ip), vehicle: carboxymethylcellulose (CMC) 107 % of control and 118 % of control | dose: 300.0 mg/kg/injection, schedule: Q01DX001 (ip), vehicle: carboxymethylcellulose (CMC) 95 % of control and 104 % of control | dose: 400.0 mg/kg/injection, schedule: Q01DX001 (ip), vehicle: carboxymethylcellulose (CMC) 98 % of control
